According to patent US20200247897A1, “THERAPEUTIC ANTIBODIES BASED ON MUTATED IGG HEXAMERS” (GENMAB B.V., priority 2017, published 2020):

Tested on: panel of 235 cell lines representing 14 tumor lineages
Test: ATPlite growth inhibition screening of a human cancer cell line panel (Horizon Discovery)
Format: cell-based
Procedure: A 72 hour ATPlite assay (except for DLD-1 and HCT116 cell lines, for which a 120 hour assay was performed) with growth inhibition analysis was performed in two parts at Horizon Discovery Ltd, UK. Samples were tested as four replicates in 384-well assay plates. Serial dilution series of antibody, starting from 0.072 μM final concentration was used for all tested cell lines. For TRAIL (Invitrogen; Cat # PHC1634) serial dilution series starting from 0.01 μM final concentration for the cell lines tested in the first part and 0.17 μM final concentration for the cell lines tested in the second part of the screening was used.

[1] = 59M, ovary cancer, screening #1
[2] = 769-P, kidney cancer, screening #2
[3] = 786-0, kidney cancer, screening #2
[4] = 5637, bladder cancer, screening #2
[5] = A172, neural tissue cancer, screening #2
[6] = ACHN, kidney cancer, screening #2
[7] = CAL-54, kidney cancer, screening #1
[8] = COLO-783, melanoma, screening #1
[9] = COR-L23-CPR, NSCLC, screening #1
[10] = COV434, ovary cancer, screening #1
[11] = COV644, ovary cancer, screening #1
[12] = G-402, kidney cancer, screening #2
[13] = HCC1937, breast cancer (TNBC), screening #2
[14] = HT-1197, bladder cancer, screening #2
[15] = HT-1376, bladder cancer, screening #2
[16] = Hs 294T, melanoma, screening #1
[17] = HuP-T3, pancreatic cancer, screening #1
[18] = J82, bladder cancer, screening #1
[19] = JHOM-1, ovary cancer, screening #1

With “TRAIL: natural DR5 ligand, recombinant human TRAIL/APO-2L” the IC50 [1] was 0.049 nM, the “Max Inhibition” value [1] was 98.5% and the IC50 [2] was 1.94 nM. The “Max Inhibition” value [2] was 39.4%, the IC50 [3] was 288 nM and the “Max Inhibition” value [3] was 2.6%. The IC50 [4] was 0.06 nM, the “Max Inhibition” value [4] was 99.1% and the IC50 [5] was 0.029 nM. The “Max Inhibition” value [5] was 98.2%, the “Max Inhibition” value (A375, melanoma, screening #1) was 47.1% and the IC50 (A498, kidney cancer, screening #2) was 0.079 nM. For the same substance, the IC50 (A704, kidney cancer, screening #1) was 3.44 nM, the IC50 [6] was 0.356 nM and the “Max Inhibition” value [6] was 32.4%. The “Max Inhibition” value (BEN, NSCLC, screening #1) was 8.1%, the IC50 (BT-20, breast cancer (TNBC), screening #2) was 0.089 nM and the IC50 (BT-549, breast cancer (TNBC), screening #2) was 0.285 nM. The “Max Inhibition” value (BxPC-3, pancreatic cancer, screening #1) was 46.5%, the “Max Inhibition” value (CAKI-2, kidney cancer, screening #1) was 5.7% and the “Max Inhibition” value (CAL-12T, NSCLC, screening #1) was 11.9%. The IC50 [7] was 0.268 nM, the “Max Inhibition” value [7] was 71.6% and the “Max Inhibition” value (CAPAN-2, pancreatic cancer, screening #1) was 4.8%. For the same substance, the “Max Inhibition” value (CFPAC-1, pancreatic cancer, screening #1) was 13.2%, the IC50 (CL-11, colorectal cancer, screening #1) was 1.32 nM and the IC50 (CL-34, colorectal cancer, screening #1) was 0.024 nM. For the same substance, the IC50 (CL-40, colorectal cancer, screening #1) was 1.98 nM, the “Max Inhibition” value (COLO858, melanoma, screening #1) was 12.6% and the IC50 (COLO-201, colorectal cancer, screening #1) was 0.168 nM. The IC50 (COLO-205, colorectal cancer, screening #1) was 2.27 nM, the IC50 (COLO-206F, colorectal cancer, screening #1) was 0.146 nM and the “Max Inhibition” value (COLO-679, melanoma, screening #1) was 24.9%. The “Max Inhibition” value (COLO-699, NSCLC, screening #1) was 2.8%, the IC50 [8] was 0.224 nM and the “Max Inhibition” value [8] was 80.9%. For the same substance, the “Max Inhibition” value (COLO-800, melanoma, screening #1) was 33.5%, the “Max Inhibition” value (COLO-818, melanoma, screening #1) was 7.8% and the “Max Inhibition” value (COLO-849, melanoma, screening #1) was 17.6%. For the same substance, the IC50 [9] was 5.48 nM, the “Max Inhibition” value [9] was 58.4% and the “Max Inhibition” value (COR-L105, NSCLC, screening #1) was 35.7%. For the same substance, the IC50 [10] was 0.395 nM, the “Max Inhibition” value [10] was 73.1% and the “Max Inhibition” value (COV504, ovary cancer, screening #1) was 11.7%. For the same substance, the IC50 [11] was 0.271 nM, the “Max Inhibition” value [11] was 74.9% and the “Max Inhibition” value (Calu-1, NSCLC, screening #1) was 22.0%. The IC50 (DBTRG-05MG, neural tissue cancer, screening #2) was 0.087 nM, the IC50 (DLD-1, colorectal cancer, screening #1) was 3.95 nM and the IC50 (DLD-1_BRCA2 (−/−), colorectal cancer, screening #1) was 0.516 nM. For the same substance, the IC50 (DU-4475, breast cancer (TNBC), screening #2) was 0.079 nM, the IC50 (DV-90, NSCLC, screening #1) was 1.19 nM and the “Max Inhibition” value (DV-90, NSCLC, screening #1) was 96.1%. The “Max Inhibition” value (EPLC-272H, NSCLC, screening #1) was 51.7%, the IC50 (FTC-238, head and neck cancer, screening #1) was 3.92 nM and the IC50 (G-401, kidney cancer, screening #2) was 0.068 nM. The IC50 [12] was 0.173 nM, the “Max Inhibition” value [12] was 15.0% and the IC50 (GP2D, colorectal cancer, screening #1) was 0.003 nM. It also gave an IC50 (GSU, gastric cancer, screening #1) of 0.454 nM, an IC50 (H4, neural tissue cancer, screening #2) of 0.007 nM and an IC50 (HCC38, breast cancer (TNBC), screening #2) of 0.08 nM. For the same substance, the IC50 (HCC70, breast cancer (TNBC), screening #2) was 347 nM, the IC50 (HCC1187, breast cancer (TNBC), screening #2) was 0.066 nM and the IC50 (HCC1806, breast cancer (TNBC), screening #2) was 0.05 nM. For the same substance, the IC50 [13] was 0.647 nM, the “Max Inhibition” value [13] was 28.5% and the IC50 (HCT-15, colorectal cancer, screening #1) was 0.129 nM. For the same substance, the IC50 (HCT-116_ARID1A (Q456*/Q456*), colorectal cancer, screening #1) was 10.5 nM, the IC50 (HCT-116_KRAS (+/−), colorectal cancer, screening #1) was 0.253 nM and the IC50 (HCT-116_PIK3A (+/−)KO mt H1047R, colorectal cancer, screening #1) was 1.25 nM. The IC50 (HEC-108, endometrial cancer, screening #1) was 1.48 nM, the IC50 (HEC-265, endometrial cancer, screening #1) was 0.021 nM and the “Max Inhibition” value (HLC-1, NSCLC, screening #1) was 32.6%. The IC50 (HLE, liver cancer, screening #1) was 8.36 nM, the IC50 (HMC-1-8, breast cancer (TNBC), screening #2) was 0.232 nM and the “Max Inhibition” value (HMCB, melanoma, screening #1) was 1.0%. For the same substance, the “Max Inhibition” value (HOP-62, NSCLC, screening #1) was 55.6%, the “Max Inhibition” value (HPAF-II, pancreatic cancer, screening #1) was 13.3% and the IC50 (HRT-186, colorectal cancer, screening #1) was 9.24 nM. For the same substance, the IC50 (HT55, colorectal cancer, screening #1) was 0.11 nM, the IC50 (HT-115, colorectal cancer, screening #1) was 0.107 nM and the IC50 [14] was 0.167 nM. For the same substance, the “Max Inhibition” value [14] was 31.8%, the IC50 [15] was 160 nM and the “Max Inhibition” value [15] was 10.6%. The IC50 [16] was 0.019 nM, the “Max Inhibition” value [16] was 91.1% and the “Max Inhibition” value (Hs 936.T, melanoma, screening #1) was 20.7%. The IC50 [17] was 0.223 nM, the “Max Inhibition” value [17] was 88.4% and the “Max Inhibition” value (IGR-1, melanoma, screening #1) was 23.3%. The “Max Inhibition” value (IGR-37, melanoma, screening #1) was 18.0%, the “Max Inhibition” value (IGR-39, melanoma, screening #1) was 20.1% and the “Max Inhibition” value (IPC-298, melanoma, screening #1) was 5.7%. For the same substance, the IC50 [18] was 33.6 nM, the “Max Inhibition” value [18] was 11.5% and the “Max Inhibition” value (JHOC-5, ovary cancer, screening #1) was 18.4%. For the same substance, the IC50 [19] was 0.596 nM, the “Max Inhibition” value [19] was 58.1% and the “Max Inhibition” value (JHOM-2B, ovary cancer, screening #1) was 21.7%. The “Max Inhibition” value (JHOS-4, ovary cancer, screening #1) was 12.5%, the IC50 (JHUEM-2, endometrial cancer, screening #1) was 0.165 nM and the “Max Inhibition” value (KLM-1, pancreatic cancer, screening #1) was 12.7%. The IC50 (KNS-81, neural tissue cancer, screening #2) was 0.013 nM, the “Max Inhibition” value (KP-2, pancreatic cancer, screening #1) was 3.9% and the “Max Inhibition” value (KP-3, pancreatic cancer, screening #1) was 23.5%. The “Max Inhibition” value (KP-4, pancreatic cancer, screening #1) was 23.6%.
